Structures are written as SMILES. Where two headings read alike, the source gives them in different places.

For data set [1] the following is noted: cited from earlier work; for K a,TIC, absorption rate constant, fixed to a published value: FIXED in the model.
Data set [2] concerns the target T1, CYP2B6 (Homo sapiens, UniProt P20813).
T1 sequence (P20813 1-491): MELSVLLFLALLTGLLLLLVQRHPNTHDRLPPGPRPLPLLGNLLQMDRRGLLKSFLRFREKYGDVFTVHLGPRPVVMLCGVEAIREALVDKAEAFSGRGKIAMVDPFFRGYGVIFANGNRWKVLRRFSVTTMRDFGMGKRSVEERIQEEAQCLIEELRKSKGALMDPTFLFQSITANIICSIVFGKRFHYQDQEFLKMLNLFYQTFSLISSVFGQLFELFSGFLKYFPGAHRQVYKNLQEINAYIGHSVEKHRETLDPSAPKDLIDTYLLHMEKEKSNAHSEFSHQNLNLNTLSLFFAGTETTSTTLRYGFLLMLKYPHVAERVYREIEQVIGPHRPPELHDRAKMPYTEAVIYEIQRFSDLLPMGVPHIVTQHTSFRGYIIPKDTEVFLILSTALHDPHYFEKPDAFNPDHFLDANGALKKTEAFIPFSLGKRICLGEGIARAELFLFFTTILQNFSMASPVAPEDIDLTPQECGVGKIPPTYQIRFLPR
The following applies: in vitro study; cited from earlier work.

The conditions of data set [3]: cited from earlier work; for f u,GW, unbound drug fraction in the gut wall: fixed to 1.
For data set [4] the following is noted: cited from earlier work; for AUC, NCA results: trapezoidal rule with extrapolation to infinity.
A short description of data set [5]: Semimechanistic population pharmacokinetic model. The note with it: for CLINT,H, intrinsic hepatic clearance, SIR median: SIR 20,000 samples, 2,000 resamples; for CLINT,H, intrinsic hepatic clearance, SIR median / CLINT,GW, intrinsic gut wall clearance, SIR median / Q PER1, central to first peripheral compartment clearance, SIR median / V C, volume of central compartment, SIR median / V PER1, volume of first peripheral compartment, SIR median / V C, volume of central compartment, NONMEM mean θ estimate / V PER1, volume of first peripheral compartment, NONMEM mean θ estimate: norketamine values apparent; for CLINT,GW, intrinsic gut wall clearance, NONMEM mean θ estimate / CLINT,H, intrinsic hepatic clearance, NONMEM mean θ estimate: norketamine values apparent (F met set to 1).

The target of data set [6] is T1, CYP2B6. The note with it: after administration of ticlopidine.
[7] abbreviates: S-ketamine p.o. ticlopidine-phase.

Regarding `CNC1(c2ccccc2Cl)CCCCC1=O` (stereo not drawn) [ketamine], the “Bioavailability after oral administration” value in data set [1] (extensive first-pass metabolism) is on record as ~ 17%. Also, at CYP2B6 [2], the “Fraction of ketamine metabolized by hepatic CYP2B6” value was “around 60%”.

Turning to `NC1(c2ccccc2Cl)CCCCC1=O` (stereo not drawn) [Norketamine, norketamine], the “f u,GW, unbound drug fraction in the gut wall” value (shortened to “f u,GW, unbound drug fraction”) in data set [3] is 1. Besides, the “f u,NK, unbound drug fraction in the blood” value in data set [3] (norketamine) is 0.50. In data set [4] (S-ketamine i.v. placebo-phase), the “C max, NCA results” value is given as 14 ng/mL. For the same molecule, in data set [4] (S-ketamine p.o. placebo-phase), the “C max, NCA results” value is 61 ng/mL and the “AUC, NCA results” value was 292 ng·h/mL. In addition, in data set [4] (setting [7]), the “C max, NCA results” value is 46 ng/mL and the “AUC, NCA results” value is 310 ng·h/mL. The “CLINT,H, intrinsic hepatic clearance, SIR median” value in data set [5] stood at 73.4 L/h. Besides, in data set [5] (SIR), the “CLINT,GW, intrinsic gut wall clearance, SIR median” value is 46.5 L/h; the “Q PER1, central to first peripheral compartment clearance, SIR median” value came out at 20.1 L/h; the “V C, volume of central compartment, SIR median” value (shortened to “V C, volume … SIR median”) is 88 L; the “V PER1, volume of first peripheral compartment, SIR median” value (from here on “V PER1, volume … SIR median”) was 88.8 L. The “Interindividual variability on CLINT,H, NONMEM estimate” value in data set [5] (exponential IIV model) is 0.10. Moreover, in data set [5] (exponential IIV model, SIR), the “Interindividual variability on CLINT,H, SIR median” value came to 0.10. For the same molecule, in data set [5] (final model), the “V C, volume of central compartment, NONMEM mean θ estimate” value (from here on “V C, volume … NONMEM mean θ estimate”) was 88.4 L; the “V PER1, volume of first peripheral compartment, NONMEM mean θ estimate” value (“V PER1, volume … NONMEM mean θ estimate” for short) is reported as 88.9 L; the “CLINT,GW, intrinsic gut wall clearance, NONMEM mean θ estimate” value is 44.4 L/h; the “CLINT,H, intrinsic hepatic clearance, NONMEM mean θ estimate” value is given as 73.5 L/h.

Consider `CN[C@]1(c2ccccc2Cl)CCCCC1=O` [S‐ketamine], for which, in data set [3] (S-ketamine), the “f u,SK, unbound drug fraction in the blood” value is reported as 0.70. In addition, the “f u,GW, unbound drug fraction” value in data set [3] is 1. Further, the “Intrinsic hepatic clearance of S-ketamine” value at CYP2B6 [6] was determined as 113 L/h. In addition, at CYP2B6 [6] (well-stirred model), the “Total hepatic clearance of S-ketamine” value turned out to be 60 L/h. The “C max, NCA results” value in data set [4] (S-ketamine i.v. placebo-phase) is 32 ng/mL. In addition, in data set [4] (S-ketamine p.o. placebo-phase), the “C max, NCA results” value is 9.9 ng/mL and the “AUC, NCA results” value is 21 ng·h/mL. Further, in data set [4] (setting [7]), the “C max, NCA results” value is given as 17 ng/mL and the “AUC, NCA results” value is 54 ng·h/mL. In data set [5] (SIR), the “K a, absorption rate constant, SIR median” value came to 1.78 h⁻¹; the “Q PER2, central to second peripheral compartment clearance, SIR median” value amounted to 22.3 L/h; the “V PER2, volume of second peripheral compartment, SIR median” value was 180 L; the “CLINT,GW, intrinsic gut wall clearance, SIR median” value came out at 1.22 L/h. Moreover, in data set [5] (SIR), the “Q PER1, central to first peripheral compartment clearance, SIR median” value is on record as 288 L/h; the “V C, volume … SIR median” value worked out at 14.4 L; the “V PER1, volume … SIR median” value is given as 102 L. Besides, the “CLINT,H, intrinsic hepatic clearance, SIR median” value in data set [5] amounted to 304 L/h. In data set [5] (exponential IIV model), the “Interindividual variability on CLINT,GW, NONMEM estimate” value was 2.1; the “Interindividual variability on CLINT,H, NONMEM estimate” value was 0.25; the “Interindividual variability on K a, NONMEM estimate” value is given as 0.42; the “Interindividual variability on V PER1, NONMEM estimate” value is listed as 0.045. Moreover, in data set [5] (exponential IIV model, SIR), the “Interindividual variability on CLINT,GW, SIR median” value was 2.0; the “Interindividual variability on CLINT,H, SIR median” value came out at 0.26; the “Interindividual variability on K a, SIR median” value was found to be 0.44; the “Interindividual variability on V PER1, SIR median” value is listed as 0.046. Also, in data set [5] (final model), the “K a, absorption rate constant, NONMEM mean θ estimate” value was 1.76 h⁻¹; the “V PER2, volume of second peripheral compartment, NONMEM mean θ estimate” value is reported as 180 L; the “V C, volume … NONMEM mean θ estimate” value was 14.4 L; the “V PER1, volume … NONMEM mean θ estimate” value is 102 L. Moreover, in data set [5] (final model), the “CLINT,GW, intrinsic gut wall clearance, NONMEM mean θ estimate” value was 1.19 L/h and the “CLINT,H, intrinsic hepatic clearance, NONMEM mean θ estimate” value is reported as 301 L/h. Besides, the “Total hepatic clearance of S-ketamine” value in data set [5] (placebo phase, well-stirred model) came to 71 L/h. Further, the “Share of S-ketamine metabolized to norketamine in vivo” value in data set [1] is ~ 80%. Also, the “F met, true value for S-ketamine to norketamine metabolism” value in data set [1] (humans, set to 1 in the model) is listed as “b Should be considered as apparent rather than absolute values, as F met was set to 1 but true value of F met = 0.80 in humans for S‐ketamine to norketamine metabolism”.

On to `CCC(C)n1ncn(-c2ccc(N3CCN(c4ccc(OCC5COC(Cn6cncn6)(c6ccc(Cl)cc6Cl)O5)cc4)CC3)cc2)c1=O` (stereo not drawn) [Itraconazole], for which the “Effect on plasma concentrations of orally administered S-ketamine” value in data set [4] (CYP3A inhibitor pretreatment, healthy volunteers) is reported as “no significant effect”.

With `Clc1ccccc1CN1CCc2sccc2C1` [Ticlopidine, ticlopidine], in data set [3], the “f u,GW, unbound drug fraction” value is given as 1. In addition, in data set [5] (SIR), the “V C, volume … SIR median” value stood at 50.8 L and the “V PER1, volume … SIR median” value amounted to 208.7 L. In data set [5] (final model), the “V C, volume … NONMEM mean θ estimate” value was 50.3 L and the “V PER1, volume … NONMEM mean θ estimate” value is 191 L. For the same molecule, in data set [1], the “K a,TIC, absorption rate constant, fixed to a published value” is listed as 3.3 (FIXED) /h and the “Ticlopidine half-life after multiple dosing” value was “increased”. The “K a,TIC, absorption rate constant, fixed to a published value” in data set [1] (listed as ticlopidine) is 3.3 h⁻¹.

The record behind these values is article PMC6202471 (CPT: Pharmacometrics & Systems Pharmacology, 2018).
